Results: patent US20230045151A1, “COMPOSITIONS AND METHODS” (MONASH UNIVERSITY, priority 2020, published 2023)

Columns and labels:
[1] = system: pulmonary DCs; test: DC:T cell co-culture (priming of naive OT-II cells / restimulation of effector Th cells); assay type: cell-based, mouse; settings: pulmonary DCs from L-tyrosine-treated mice
Description: Data from a-c are pooled from two experiments (a, b, n=10 biologically independent samples per group; c, n=9 biologically independent samples per group). Data in d represent technical replicates (n=6 left panel, n=5 right panel) from one experiment. Data in e are pooled from 3 independent experiments (n=6 per group). Data in f are pooled from two independent experiments (n=5 biologically independent samples per group). Data in g are pooled from two independent experiments (n=9 biologically independent samples per group). Data in h are pooled from two independent experiments (n=4 biologically independent samples per group). All data are presented as mean values±s.e.m. Statistical significance for a-d, f, g, was evaluated with unpaired Student's t-test (in the case of Gaussian distribution) or Mann-Whitney test (non-Gaussian distribution). Statistical significance for e, h was determined with One-Way analysis of variance (ANOVA) with Dunnett correction for multiple comparisons. Data distribution was assessed with D'Agostino & Pearson normality test. *p≤0.05, **p≤0.01, ***p≤0.001, ****p≤0.0001
DC: T cell co-cultures were set-up by sorting CD11c+ SiglecF− (DCs) and CD4+CD44+ T cells from the lungs of HDM-immunized mice on FACSAria III (BD Biosciences™, San Jose, Calif.). […]

[2] = system: lung DCs; test: In vivo tracking of DCs after intranasal fluorescently labelled HDM; set-up: species or system mouse; settings: L-tyrosine-treated mice, intranasal HDM-AF647
Protocol: Mediastinal lymph nodes were filtered through a 40 μm cell strainer, washed with PBS supplemented with 1% fetal bovine serum and 2 mM EDTA (Invitrogen) (MACS buffer). Lungs were finely cut with scissors, digested with Collagenase IV (Gibco™) in Iscove's modified Dulbecco's medium (IMDM, Gibco™) for 50 min at 37° C. and processed as the lymph nodes. Cell counts were determined with Coulter Counter and […] were stained with freshly prepared antibody mix in MACS buffer for 20 minutes at 4° C. in a 96-well round-bottom plates (Costar). Dendritic cells were identified using monoclonal antibodies against CD11c-phycoerythrin (PE)/Cy7 (Biolegend, cat nr 117318; diluted 1:400 in MACS buffer), SiglecF-Alexa Fluor (AF) 647 (BD Biosciences™, 562680; 1:400) and MHC-II-AF700 (Biolegend, 107622, 1:800). DC activation was assessed using antibodies against PD-L2-PE (Biolegend, 107205; 1:200), CD80− Brilliant Violet (BV)-605 (Biolegend, 104729; 1:200) and CD86-BV650 (Biolegend, 105035; 1:200). T helper cells were identified using antibodies against CD3c-Pacific Blue (PB) (Biolegend, 100214; 1:800) and CD4− PerCP-Cy5.5 (Biolegend, 100434; 1:800). Activated T helper cells were identified using anti-CD44-PE antibody (BD Biosciences™, 553134, 1: 400) A regulatory subset of T helper cells (Tregs) was identified with the addition of anti-CD25-AF700 (Biolegend, 102024; 1:200) and anti-Foxp3-AF647 (Biolegend, 126408; 1:200) antibodies. For the latter, an intracellular staining was performed, where cells were incubated with anti-Foxp3 antibody diluted in 0.5% saponin from Quillaja bark (Sigma-Aldrich) for 40 minutes at 4° C. B cells were identified with anti-CD19-PE/Cy7 (eBioscience, 25-0193; 1:200) and anti-B220-FITC (Biolegend, 103206; 1:200). When indicated, HEL and HDM were labelled with Alexa Fluor 647 antibody labelling kit (Invitrogen™) and separated from the unlabelled dye with the use of PD-10 desalting columns (GE Healthcare). […] Samples were analyzed with FlowJo 10.4.2 software (Tree Star Inc., Ashland, Oreg.). […]

N[C@@H](Cc1ccc(O)cc1)C(=O)O [L-tyrosine]
capacity of DCs to restimulate in vivo-primed effector T helper cells into an IL-13-producing subset [1]: impaired
capacity of DCs to prime naive CD4+ T cells into an IL-13-producing subset ([1]; OT-II cells): impaired
activation of lung DCs (surface CD80, CD86, PD-L2) [2]: impairment
antigen (HDM) uptake by lung DCs [2]: modest effect
migratory capacity of DCs (frequency of HDM+ DCs in the draining LNs) [2]: decreased
